Source: ChEMBL document CHEMBL5550160, “Leveraging a rationally designed veliparib-based anilide eliciting anti-leukemic effects for the design of pH-responsive polymer nanoformulation” (Eur J Med Chem, 2024)
pIC50: −log10 of the molar value.

How the values were obtained:
A549 = assay: cells; format: functional, cell-based; settings: Homo sapiens
Description: Antiproliferative activity against human A549 cells assessed as inhibition of cell growth by MTT assay

PC-3 = assay: cells; format: functional, cell-based; settings: Homo sapiens
Description: Antiproliferative activity against human PC-3 cells assessed as inhibition of cell growth by MTT assay

HL-60 = assay: cells; settings: Homo sapiens
Description: Antiproliferative activity against human HL-60 cells assessed as inhibition of cell growth by MTT assay

HH = assay: cells; format: functional, cell-based; settings: Homo sapiens
Description: Antiproliferative activity against human HH cells assessed as inhibition of cell growth by MTT assay

MOLT-4 = assay: cells; format: functional, cell-based; settings: Homo sapiens
Description: Antiproliferative activity against human MOLT-4 cells assessed as inhibition of cell growth by MTT assay

FaDu = assay: cells; format: functional, cell-based; settings: Homo sapiens
Description: Antiproliferative activity against human FaDu cells assessed as inhibition of cell growth by MTT assay

SiHa = assay: cells; format: functional, cell-based; settings: Homo sapiens
Description: Antiproliferative activity against human SiHa cells assessed as inhibition of cell growth by MTT assay

MDA-MB-231 = assay: Antiproliferative activity against human MDA-MB-231 cells assessed as inhibition of cell growth by MTT assay; format: functional, cell-based
K562 = assay: cells; settings: Homo sapiens
Description: Antiproliferative activity against human K562 cells assessed as inhibition of cell growth by MTT assay

Histone deacetylase 1 = Histone deacetylase 1 (Homo sapiens, UniProt Q13547); assay: Inhibition of HDAC1 (unknown origin) using p53 residues 379 to 382 [RHKK(Ac)] as fluorogenic substrate
Histone deacetylase 2 = Histone deacetylase 2 (Homo sapiens, UniProt Q92769); assay: Inhibition of HDAC2 (unknown origin)
Histone deacetylase 3 = Histone deacetylase 3 (Homo sapiens, UniProt O15379); assay: Inhibition of HDAC3 (unknown origin) using p53 residues 379 to 382 [RHKK(Ac)] as fluorogenic substrate
Sequence of Histone deacetylase 3 (O15379 whole entry, the tested form may be a part): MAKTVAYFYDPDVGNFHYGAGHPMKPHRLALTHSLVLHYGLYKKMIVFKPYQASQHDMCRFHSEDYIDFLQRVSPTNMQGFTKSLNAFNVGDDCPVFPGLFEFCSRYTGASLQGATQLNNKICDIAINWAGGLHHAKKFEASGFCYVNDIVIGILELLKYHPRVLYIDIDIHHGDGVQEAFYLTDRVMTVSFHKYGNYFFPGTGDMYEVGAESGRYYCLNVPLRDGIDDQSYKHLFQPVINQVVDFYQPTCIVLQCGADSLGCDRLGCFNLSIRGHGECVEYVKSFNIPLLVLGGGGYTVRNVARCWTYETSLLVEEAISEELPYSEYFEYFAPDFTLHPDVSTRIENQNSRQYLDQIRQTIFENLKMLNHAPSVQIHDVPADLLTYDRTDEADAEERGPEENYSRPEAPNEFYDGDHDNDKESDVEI

Sequence of Histone deacetylase 2 (Q92769 whole entry, the tested form may be a part): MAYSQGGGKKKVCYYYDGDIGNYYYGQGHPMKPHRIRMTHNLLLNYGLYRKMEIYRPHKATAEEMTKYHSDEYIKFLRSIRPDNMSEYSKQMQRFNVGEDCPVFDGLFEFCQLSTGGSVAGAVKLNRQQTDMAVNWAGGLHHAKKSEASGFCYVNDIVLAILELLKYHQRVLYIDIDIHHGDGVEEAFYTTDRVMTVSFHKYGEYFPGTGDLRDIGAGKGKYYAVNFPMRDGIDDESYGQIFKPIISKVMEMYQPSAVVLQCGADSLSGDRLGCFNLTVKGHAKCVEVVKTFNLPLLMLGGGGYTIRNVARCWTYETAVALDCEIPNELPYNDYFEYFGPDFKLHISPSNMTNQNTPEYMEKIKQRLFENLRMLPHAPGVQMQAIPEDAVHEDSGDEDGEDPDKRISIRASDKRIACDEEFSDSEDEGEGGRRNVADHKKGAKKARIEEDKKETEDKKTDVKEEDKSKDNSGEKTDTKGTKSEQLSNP
Sequence of Histone deacetylase 1 (Q13547 whole entry, the tested form may be a part): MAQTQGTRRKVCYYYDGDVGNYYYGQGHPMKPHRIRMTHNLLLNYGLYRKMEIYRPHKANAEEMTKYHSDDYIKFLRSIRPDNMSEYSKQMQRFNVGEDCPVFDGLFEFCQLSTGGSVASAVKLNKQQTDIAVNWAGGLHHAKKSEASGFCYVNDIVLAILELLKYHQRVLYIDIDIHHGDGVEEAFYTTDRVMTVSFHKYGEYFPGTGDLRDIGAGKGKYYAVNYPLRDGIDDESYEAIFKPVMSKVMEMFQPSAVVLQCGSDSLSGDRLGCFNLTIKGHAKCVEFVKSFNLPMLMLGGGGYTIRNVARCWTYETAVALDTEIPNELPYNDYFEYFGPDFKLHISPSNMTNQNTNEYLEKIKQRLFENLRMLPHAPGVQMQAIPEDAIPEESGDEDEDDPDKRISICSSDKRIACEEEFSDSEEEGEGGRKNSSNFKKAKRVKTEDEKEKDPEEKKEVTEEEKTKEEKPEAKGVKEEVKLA

Structure (SMILES)	pIC50 (A549)	pIC50 (PC-3)	pIC50 (HL-60)	other results
NC(=O)c1cccc2[nH]c(-c3ccc(NC(=O)CCCCCC(=O)Nc4ccccc4N)cc3)nc12	5.36	< 5.00	5.61	–
C[C@]1(c2nc3c(C(N)=O)cccc3[nH]2)CCCN1 [VELIPARIB]	< 5.00	< 5.00	< 5.00	pIC50 (HH): < 5.00; pIC50 (MOLT-4): < 5.00; pIC50 (FaDu): < 5.00; pIC50 (SiHa): < 5.00; pIC50 (MDA-MB-231): < 5.00; pIC50 (K562): < 5.00
NC(=O)c1cccc2[nH]c(-c3ccc(NCc4ccc(/C=C/C(=O)Nc5ccccc5N)cc4)cc3)nc12	< 5.00	< 5.00	5.44	–
Nc1ccccc1NC(=O)c1ccc(CNC(=O)OCc2ccccc2)cc1	5.46	5.28	5.53	pIC50 (HH): 5.30; pIC50 (MOLT-4): 5.25; pIC50 (Histone deacetylase 1): 6.26; pIC50 (Histone deacetylase 2): 6.21; pIC50 (Histone deacetylase 3): 6.20; pIC50 (K562): 5.38
NC(=O)c1cccc2[nH]c(-c3ccc(NC(=O)CCCC(=O)Nc4ccccc4N)cc3)nc12	< 5.00	< 5.00	5.49	–
NC(=O)c1cccc2[nH]c(-c3ccc(NCc4ccc(/C=C/C(=O)NO)cc4)cc3)nc12	5.69	5.70	5.22	–
NC(=O)c1cccc2[nH]c(-c3ccc(NC(=O)CCCCCCCCC(=O)Nc4ccccc4N)cc3)nc12	< 5.00	< 5.00	5.10	–
NC(=O)c1cccc2[nH]c(-c3ccc(NCc4ccc(C(=O)NO)cc4)cc3)nc12	5.64	5.63	5.91	–
NC(=O)c1cccc2[nH]c(-c3ccc(NC(=O)CCC(=O)Nc4ccccc4N)cc3)nc12	< 5.00	< 5.00	5.43	–
NC(=O)c1cccc2[nH]c(-c3ccc(NC(=O)CCCCC(=O)Nc4ccccc4N)cc3)nc12	< 5.00	5.32	5.53	–
NC(=O)c1cccc2[nH]c(-c3ccc(NC(=O)CCCCCCCC(=O)Nc4ccccc4N)cc3)nc12	< 5.00	< 5.00	5.31	–

Second part, led by results:

pIC50 (A549)	pIC50 (PC-3)	pIC50 (HL-60)	Structure (SMILES)	other results
< 5.00	< 5.00	< 5.00	NC(=O)c1cccc2[nH]c(-c3ccc(NC(=O)CCCC(=O)NO)cc3)nc12	–
5.16	5.61	5.26	NC(=O)c1cccc2[nH]c(-c3ccc(NC(=O)CCCCC(=O)NO)cc3)nc12	–
5.52	5.46	5.98	NC(=O)c1cccc2[nH]c(-c3ccc(NC(=O)CCCCCCC(=O)Nc4ccccc4N)cc3)nc12	–
< 5.00	< 5.00	5.10	NC(=O)c1cccc2[nH]c(-c3ccc(NC(=O)CCC(=O)NO)cc3)nc12	–
5.27	5.63	5.06	NC(=O)c1cccc2[nH]c(-c3ccc(NC(=O)CCCCCC(=O)NO)cc3)nc12	–
< 5.00	5.05	< 5.00	NC(=O)c1cccc2[nH]c(-c3ccc(NC(=O)CCCCCCCCC(=O)NO)cc3)nc12	–
< 5.00	5.12	< 5.00	NC(=O)c1cccc2[nH]c(-c3ccc(NC(=O)CCCCCCCC(=O)NO)cc3)nc12	–
5.68	5.73	5.49	NC(=O)c1cccc2[nH]c(-c3ccc(NC(=O)CCCCCCC(=O)NO)cc3)nc12	–
